Entries after “also recorded” stand apart in the source; their conditions may differ.
How the values were obtained:
[1] = system: patient; test: Subcutaneous continuous infusion of Levodopa in a patient; assay type: in vivo, human
[2] = Solubility of Levodopa in HCl and after raising the pH with glucose; assay type: physicochemical
Procedure: Levodopa can be dissolved in HCl up to 100 mg/mL without any precipitation. To raise the pH with glucose in a way according to the invention and still get a stabile solution, it is possible to obtain 10 mg/mL Levodopa, and with 2 mg/mL Carbidopa addition 20 mg/mL Levodopa. A precipitate appears at 30 mg/mL Levodopa in the presence of 3 mg/mL Carbidopa. The steps of producing the solutions of the invention are made rather quickly up to the addition of glucose.

[3] = system: PD patients; test: Continuous intravenous infusion of Levodopa in PD patients; assay type: in vivo, human
Procedure: Continuous infusion of Levodopa has been given to PD patients during 12 hours a day for 10 days. The daily dosage of Levodopa was 608 mg and the infusion rate was 51 mg/h. Fifty % of the patients received traditional oral administration of Carbidopa and 50% received Benserazide.

[4] = cited from earlier work
[5] = dissolved in HCl and diluted with glucose, Levodopa only active ingredient; cited from earlier work

Which results are given for `N[C@@H](Cc1ccc(O)c(O)c1)C(=O)O` [Levodopa, 3-(3,4-dihydroxiphenyl)-L-alanine]?
Levodopa blood concentrations during the day ([1]; same patient, one day of continuous intravenous infusion): some fluctuations of the Levodopa blood concentrations occurred; clinical effect ([1]; subcutaneous infusion): positive clinical effect; also recorded: good clinical effect; distribution of Levodopa to the blood ([1]; subcutaneous infusion): fast distribution of Levodopa to the blood with measurable concentrations; dose dependence of response ([1]; subcutaneous infusions, one patient): responded in a dose dependant manner; Levodopa concentration dissolved without any precipitation ([2]; in HCl): up to 100 mg/mL; Levodopa concentration at which a precipitate appears ([2]; in the presence of 3 mg/mL Carbidopa): 30 mg/mL; Levodopa concentration obtainable as stabile solution ([2]; pH raised with glucose according to the invention, no Carbidopa): 10 mg/mL; Levodopa concentration obtainable as stabile solution ([2]; pH raised with glucose, with 2 mg/mL Carbidopa addition): 20 mg/mL; follow-up time at which the long-term effect was stable ([3]; after the concluded infusion): 6-10 months; clinical fluctuations (dyskinesia and bradykinesia) ([3]; intravenous, 12 hours a day for 10 days, 608 mg daily, seventeen patients, preliminary): both bradykinesia and above all dyskinesia decline; also recorded: pronounced decrease in clinical fluctuations; duration of the long-lasting effect ([3]; intravenous, 12 hours for 10 days): at least 5 months; dyskinesia during infusion treatment, single case ([3]; person, PD for 20 years): dyskinesia disappeared almost completely; therapeutic interval from analysis of Levodopa in plasma ([3]; plasma, not uniform in the material): widening of the therapeutic interval; required oral Levodopa dosage, post-treatment (mean) ([3]; seventeen patients, after intravenous infusion treatment): 773 mg/day; required oral Levodopa dosage, pre-treatment (mean) ([3]; seventeen patients, before intravenous infusion treatment): 1003 mg/day; delay in concentration levels between plasma and CNS ([4]; in vivo): about 90 minutes; fraction of the total dose that enters the blood circulation ([4]; oral administration): approximately 10%; Levodopa concentration above which Levodopa precipitates [5]: > 5 mg/mL
